Reference: patent publication US20250170248A1, “SMARCA DEGRADERS AND USES THEREOF” (Kymera Therapeutics, Inc., priority 2021, published 2025)

Columns and labels:
Format in all cases: cell-based
SMARCA2 [1] = target: T1, SMARCA2 (Homo sapiens, UniProt P51531); assay: SMARCA2 Western blot degradation in MV4-11 cells; design: SMARCA2/SMARCA4 protein degradation selectivity in MV4-11 cells; endogenous in cells; host or cells: MV4-11; settings: for SMARCA2 MSD MV411 degradation 24 h: average Dmax % / DC50 / Selectivity in MV411: MV4-11 cells; for SMARCA2 MSD MV411 degradation 24 h: average Dmax % / DC50 / Dmax: 24 h; for DC50: read-out: SMARCA2 MSD MV411 degradation 24 h: Mean external-Abs DC50; for Selectivity in MV411: SMARCA2/4 selectivity; for Dmax: MV4-11, MV4-11 cells, read-out: SMARCA2 MSD MV411 degradation 24 h: average Dmax %
T1 sequence (P51531 whole entry): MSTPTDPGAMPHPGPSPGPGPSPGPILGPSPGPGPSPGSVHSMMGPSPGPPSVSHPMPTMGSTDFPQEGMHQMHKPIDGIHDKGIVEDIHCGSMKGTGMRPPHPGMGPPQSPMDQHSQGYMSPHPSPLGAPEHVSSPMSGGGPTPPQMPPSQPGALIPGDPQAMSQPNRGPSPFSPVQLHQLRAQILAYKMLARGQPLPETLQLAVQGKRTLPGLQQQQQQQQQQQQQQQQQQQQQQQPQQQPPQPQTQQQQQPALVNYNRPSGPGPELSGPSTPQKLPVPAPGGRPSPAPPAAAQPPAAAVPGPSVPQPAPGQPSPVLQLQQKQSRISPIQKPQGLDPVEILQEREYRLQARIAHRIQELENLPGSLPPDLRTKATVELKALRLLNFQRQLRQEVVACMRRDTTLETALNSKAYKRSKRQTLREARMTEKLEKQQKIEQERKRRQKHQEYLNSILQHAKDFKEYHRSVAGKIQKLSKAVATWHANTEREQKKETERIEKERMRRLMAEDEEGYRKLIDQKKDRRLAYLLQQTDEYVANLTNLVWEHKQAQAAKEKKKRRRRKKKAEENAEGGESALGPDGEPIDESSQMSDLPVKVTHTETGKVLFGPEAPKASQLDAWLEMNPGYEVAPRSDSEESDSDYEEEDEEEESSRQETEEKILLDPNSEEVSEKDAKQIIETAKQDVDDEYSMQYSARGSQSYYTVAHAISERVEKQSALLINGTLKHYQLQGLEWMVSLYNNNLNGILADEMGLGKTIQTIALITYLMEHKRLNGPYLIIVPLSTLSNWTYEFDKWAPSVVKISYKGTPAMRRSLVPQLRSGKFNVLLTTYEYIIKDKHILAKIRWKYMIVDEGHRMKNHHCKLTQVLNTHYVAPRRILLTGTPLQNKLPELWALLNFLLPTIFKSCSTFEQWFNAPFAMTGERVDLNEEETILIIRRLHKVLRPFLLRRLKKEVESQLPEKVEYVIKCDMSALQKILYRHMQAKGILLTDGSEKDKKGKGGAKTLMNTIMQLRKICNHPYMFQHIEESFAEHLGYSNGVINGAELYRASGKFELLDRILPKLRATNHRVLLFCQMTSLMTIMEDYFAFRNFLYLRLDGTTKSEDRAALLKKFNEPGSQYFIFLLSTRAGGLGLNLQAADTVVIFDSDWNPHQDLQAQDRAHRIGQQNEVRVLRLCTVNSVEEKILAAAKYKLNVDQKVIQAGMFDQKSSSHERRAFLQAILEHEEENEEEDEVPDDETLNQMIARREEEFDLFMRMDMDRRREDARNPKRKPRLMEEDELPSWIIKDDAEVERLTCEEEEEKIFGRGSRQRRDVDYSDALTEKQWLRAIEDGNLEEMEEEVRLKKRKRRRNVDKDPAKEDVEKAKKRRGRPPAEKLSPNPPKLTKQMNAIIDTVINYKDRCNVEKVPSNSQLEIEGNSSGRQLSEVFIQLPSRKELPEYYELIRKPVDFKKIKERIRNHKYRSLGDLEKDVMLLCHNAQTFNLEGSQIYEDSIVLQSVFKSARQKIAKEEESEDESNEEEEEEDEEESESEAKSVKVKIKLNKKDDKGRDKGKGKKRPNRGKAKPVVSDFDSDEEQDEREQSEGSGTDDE

SMARCA2 [2] = target: T1, SMARCA2; assay: MSD SMARCA2 degradation in A549 cell line; settings: for SMARCA2 MSD A549 degradation 24 h: Average Dmax % / DC50: A549 cells; for DC50 / Dmax: 24 h; for DC50: read-out: SMARCA2 MSD A549 degradation 24 h: Average external-Abs DC50; for Dmax: A549, A549 cells
Procedure, shortened: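 SMARCA2 protein remaining after 24 h exposure of A549 cells (top concentration 1000 nM, 3-fold dilutions) was measured by MSD electrochemiluminescence immunoassay of cell lysates. Results are given as binned DC50 and maximal degradation (Dmax) codes.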

SMARCA4 = target: T2, SMARCA4 (Homo sapiens, UniProt P51532); assay: SMARCA4 Western blot degradation in MV4-11 cells; settings: for SMARCA4 MSD MV411 degradation 24 h: average Dmax % / DC50: MV4-11 cells; for DC50 / Dmax: 24 h; for DC50: read-out: SMARCA4 MSD MV411 degradation 24 h: Mean external-Abs DC50; for Dmax: MV4-11, MV4-11 cells, read-out: SMARCA4 MSD MV411 degradation 24 h: average Dmax %
T2 construct: SMARCA2/SMARCA4 protein degradation selectivity in MV4-11 cells; endogenous in cells; host or cells: MV4-11
T2 sequence (P51532 whole entry): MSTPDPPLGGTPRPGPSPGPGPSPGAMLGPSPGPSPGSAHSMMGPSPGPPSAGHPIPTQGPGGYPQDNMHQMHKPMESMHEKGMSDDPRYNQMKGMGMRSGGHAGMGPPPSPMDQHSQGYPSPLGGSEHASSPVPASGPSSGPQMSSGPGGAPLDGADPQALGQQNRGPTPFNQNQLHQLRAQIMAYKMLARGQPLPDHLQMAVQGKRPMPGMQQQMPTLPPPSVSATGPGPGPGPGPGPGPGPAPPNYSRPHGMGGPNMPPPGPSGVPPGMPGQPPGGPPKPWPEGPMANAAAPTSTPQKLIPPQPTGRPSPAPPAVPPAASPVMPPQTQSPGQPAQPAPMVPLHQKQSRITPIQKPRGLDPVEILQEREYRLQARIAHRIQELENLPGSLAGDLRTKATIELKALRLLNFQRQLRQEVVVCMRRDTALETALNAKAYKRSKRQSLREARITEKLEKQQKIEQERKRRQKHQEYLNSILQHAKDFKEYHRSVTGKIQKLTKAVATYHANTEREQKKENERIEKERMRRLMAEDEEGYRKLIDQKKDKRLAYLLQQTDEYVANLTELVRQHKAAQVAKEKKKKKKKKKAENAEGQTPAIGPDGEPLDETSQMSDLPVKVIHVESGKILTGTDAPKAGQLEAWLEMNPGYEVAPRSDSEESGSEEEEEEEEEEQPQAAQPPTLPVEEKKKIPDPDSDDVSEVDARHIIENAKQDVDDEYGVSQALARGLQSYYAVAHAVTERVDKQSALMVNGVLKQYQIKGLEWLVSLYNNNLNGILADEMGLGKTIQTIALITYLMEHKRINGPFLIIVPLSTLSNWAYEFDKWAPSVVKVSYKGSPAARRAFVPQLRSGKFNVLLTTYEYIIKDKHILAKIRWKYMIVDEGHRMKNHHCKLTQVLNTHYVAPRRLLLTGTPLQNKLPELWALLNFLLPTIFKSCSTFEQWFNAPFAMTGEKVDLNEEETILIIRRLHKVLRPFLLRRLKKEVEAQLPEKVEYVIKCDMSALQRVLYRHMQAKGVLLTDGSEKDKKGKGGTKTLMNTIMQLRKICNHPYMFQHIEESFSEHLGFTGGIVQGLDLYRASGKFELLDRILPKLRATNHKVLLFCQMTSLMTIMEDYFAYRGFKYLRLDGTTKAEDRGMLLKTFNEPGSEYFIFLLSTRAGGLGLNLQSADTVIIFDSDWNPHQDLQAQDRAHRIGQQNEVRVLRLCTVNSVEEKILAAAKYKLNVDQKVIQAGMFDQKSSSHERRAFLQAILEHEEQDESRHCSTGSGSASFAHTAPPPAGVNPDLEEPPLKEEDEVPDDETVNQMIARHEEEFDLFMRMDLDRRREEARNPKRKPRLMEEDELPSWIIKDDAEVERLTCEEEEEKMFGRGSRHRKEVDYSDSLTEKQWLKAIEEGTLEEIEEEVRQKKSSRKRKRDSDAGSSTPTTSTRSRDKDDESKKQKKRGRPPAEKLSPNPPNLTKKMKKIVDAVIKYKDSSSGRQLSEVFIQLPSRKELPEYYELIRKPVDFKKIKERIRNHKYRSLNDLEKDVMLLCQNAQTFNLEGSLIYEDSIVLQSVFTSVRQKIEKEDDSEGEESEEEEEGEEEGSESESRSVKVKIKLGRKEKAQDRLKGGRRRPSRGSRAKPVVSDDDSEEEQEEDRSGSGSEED
Procedure, shortened: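 Protein levels quantified by LI-COR Western blot (beta-actin loading control) in RIPA lysates of MV4-11 cells after 24 h compound exposure. Degradation reported as DC50, Dmax % at 24 h and SMARCA2 vs SMARCA4 selectivity, each binned into letter codes.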

Cc1ncsc1-c1ccc(CNC(=O)[C@@H]2C[C@@H](O)CN2C(=O)[C@@H](NC(=O)[C@H]2CC3(C2)C[C@H](N2CCN(c4cnc(N5CCc6[nH]c7nnc(-c8ccccc8O)cc7c6[C@H]5C)nc4)CC2)C3)C(C)(C)C)cc1 (single isomer, unassigned) [I-77]
SMARCA2 MSD MV411 degradation 24 h: average Dmax % (SMARCA2 [1]): B (B (>70-90% degradation))
DC50 (SMARCA2 [1]): 1 to 10 nM
Selectivity in MV411 (SMARCA2 [1]): C (C (10-100 fold))
SMARCA2 MSD A549 degradation 24 h: Average Dmax % (SMARCA2 [2]): A (A (>90% degradation))
DC50 (SMARCA2 [2]): 10 to 50 nM
SMARCA4 MSD MV411 degradation 24 h: average Dmax % (SMARCA4): D (D (<50% degradation))
DC50 (SMARCA4): > 100 nM

C#Cc1ccc(CNC(=O)[C@@H]2C[C@@H](O)CN2C(=O)[C@@H](NC(=O)N2CC3(CC(N4CCN([C@H]5CC[C@H](N6CCc7[nH]c8nnc(-c9ccccc9O)cc8c7[C@H]6C)CC5)CC4)C3)C2)C(C)(C)C)cc1 [I-186]
Dmax (SMARCA2 [1]): 70 to 90%
DC50 (SMARCA2 [1]): 10 to 100 nM
Selectivity in MV411 (SMARCA2 [1]): D (D (<10 fold))
Dmax (SMARCA2 [2]): > 90%
DC50 (SMARCA2 [2]): 50 to 100 nM
Dmax (SMARCA4): > 90%
DC50 (SMARCA4): 10 to 100 nM

C#Cc1ccc(C2(NC(=O)[C@@H]3C[C@@H](O)CN3C(=O)[C@@H](NC(=O)[C@H]3CC4(C3)C[C@H](N3CCC(N5CCC(N6CCN7c8cc(-c9ccccc9O)nnc8NC[C@H]7C6)CC5)CC3)C4)C(C)(C)C)CC2)cc1 (single isomer, unassigned) [I-225]
SMARCA2 MSD MV411 degradation 24 h: average Dmax % (SMARCA2 [1]): B (B (>70-90% degradation))
DC50 (SMARCA2 [1]): 1 to 10 nM
Selectivity in MV411 (SMARCA2 [1]): B (B (>100-500 fold))
SMARCA2 MSD A549 degradation 24 h: Average Dmax % (SMARCA2 [2]): A (A (>90% degradation))
DC50 (SMARCA2 [2]): > 100 nM
SMARCA4 MSD MV411 degradation 24 h: average Dmax % (SMARCA4): D (D (<50% degradation))
DC50 (SMARCA4): > 100 nM

C#Cc1ccc(CNC(=O)[C@@H]2C[C@@H](O)CN2C(=O)C(c2cc(N3CCC(CN4CCC(N5CCC(N6CCN7c8cc(-c9ccccc9O)nnc8NC[C@H]7C6)CC5)CC4)CC3)no2)C(C)C)c(Cl)c1 (stereo partly drawn) [I-325]
Dmax (SMARCA2 [1]): > 90%
DC50 (SMARCA2 [1]): 1 to 10 nM
Selectivity in MV411 (SMARCA2 [1]): C (C (10-100 fold))
Dmax (SMARCA2 [2]): > 90%
DC50 (SMARCA2 [2]): 10 to 50 nM
Dmax (SMARCA4): > 90%
DC50 (SMARCA4): 10 to 100 nM

Cc1ncsc1-c1ccc(CNC(=O)[C@@H]2C[C@@H](O)CN2C(=O)[C@@H](NC(=O)[C@H]2CC3(CC[C@H](N4CCN(c5cnc(N6CCc7[nH]c8nnc(-c9ccccc9O)cc8c7[C@H]6C)nc5)CC4)CC3)C2)C(C)(C)C)cc1 (single isomer, unassigned) [I-79]
SMARCA2 MSD MV411 degradation 24 h: average Dmax % (SMARCA2 [1]): B (B (>70-90% degradation))
DC50 (SMARCA2 [1]): 10 to 100 nM
Selectivity in MV411 (SMARCA2 [1]): C (C (10-100 fold))
SMARCA2 MSD A549 degradation 24 h: Average Dmax % (SMARCA2 [2]): A (A (>90% degradation))
DC50 (SMARCA2 [2]): > 100 nM
SMARCA4 MSD MV411 degradation 24 h: average Dmax % (SMARCA4): D (D (<50% degradation))
DC50 (SMARCA4): > 100 nM

C#Cc1ccc(CNC(=O)[C@@H]2C[C@@H](O)CN2C(=O)[C@@H](NC(=O)N2CC3(CC(N4CCC(c5cnc(N6CCc7[nH]c8nnc(-c9ccccc9O)cc8c7[C@H]6C)nc5)CC4)C3)C2)C(C)(C)C)c(OCCCOC)c1 [I-128]
Dmax (SMARCA2 [1]): > 90%
DC50 (SMARCA2 [1]): 1 to 10 nM
Selectivity in MV411 (SMARCA2 [1]): D (D (<10 fold))
Dmax (SMARCA2 [2]): > 90%
DC50 (SMARCA2 [2]): < 10 nM
Dmax (SMARCA4): > 90%
DC50 (SMARCA4): 10 to 100 nM

Cc1ncsc1-c1ccc(CNC(=O)[C@@H]2C[C@@H](O)CN2C(=O)[C@@H](NC(=O)[C@H]2CC3(C2)C[C@H](N2CCC(c4ccnc(N5CCN6c7cc(-c8ccccc8O)nnc7NC[C@H]6C5)n4)CC2)C3)C(C)(C)C)cc1 (single isomer, unassigned) [I-5]
Dmax (SMARCA2 [1]): > 90%
DC50 (SMARCA2 [1]): 1 to 10 nM
Selectivity in MV411 (SMARCA2 [1]): A (A (>500 fold))
Dmax (SMARCA2 [2]): > 90%
DC50 (SMARCA2 [2]): 10 to 50 nM
Dmax (SMARCA4): < 50%
DC50 (SMARCA4): > 100 nM

Cc1ncsc1-c1ccc(CNC(=O)[C@@H]2C[C@@H](O)CN2C(=O)[C@@H](NC(=O)[C@H]2CC3(C2)C[C@H](N2CCC(c4ccnc(N5CCN6c7cc(-c8ccccc8O)nnc7NC[C@H]6C5)n4)CC2)C3)C(C)(C)C)cc1 (single isomer, unassigned) [I-27]
SMARCA2 MSD MV411 degradation 24 h: average Dmax % (SMARCA2 [1]): A (A (>90% degradation))
DC50 (SMARCA2 [1]): 1 to 10 nM
Selectivity in MV411 (SMARCA2 [1]): A (A (>500 fold))
SMARCA2 MSD A549 degradation 24 h: Average Dmax % (SMARCA2 [2]): B (B (>70-90% degradation))
DC50 (SMARCA2 [2]): 10 to 50 nM
SMARCA4 MSD MV411 degradation 24 h: average Dmax % (SMARCA4): D (D (<50% degradation))
DC50 (SMARCA4): > 100 nM

C#Cc1ccc(CNC(=O)[C@@H]2C[C@@H](O)CN2C(=O)[C@@H](NC(=O)N2CCN(CC3CCN(c4cnc(N5CCc6[nH]c7nnc(-c8ccccc8O)cc7c6[C@H]5C)nc4)CC3)CC2)C(C)(C)C)cc1 [I-159]
Dmax (SMARCA2 [1]): 50 to 70%
DC50 (SMARCA2 [1]): 10 to 100 nM
Selectivity in MV411 (SMARCA2 [1]): B (B (>100-500 fold))
Dmax (SMARCA2 [2]): > 90%
DC50 (SMARCA2 [2]): > 100 nM
Dmax (SMARCA4): 50 to 70%
DC50 (SMARCA4): > 100 nM

C#Cc1ccc(CNC(=O)[C@@H]2C[C@@H](O)CN2C(=O)[C@@H](NC(=O)N2CC3(CC(N4CCC(c5cnc(N6CCc7[nH]c8nnc(-c9ccccc9O)cc8c7[C@H]6C)nc5)CC4)C3)C2)C(C)(C)CCO)cc1 [I-288]
Dmax (SMARCA2 [1]): > 90%
DC50 (SMARCA2 [1]): 1 to 10 nM
Selectivity in MV411 (SMARCA2 [1]): C (C (10-100 fold))
Dmax (SMARCA2 [2]): > 90%
DC50 (SMARCA2 [2]): < 10 nM
Dmax (SMARCA4): 70 to 90%
DC50 (SMARCA4): 10 to 100 nM

C#Cc1ccc([C@H](C)NC(=O)[C@@H]2C[C@@H](O)CN2C(=O)C(c2cc(N3CCC(N4CCC(N5CCC(CN6CCN7c8cc(-c9ccccc9O)nnc8NC[C@H]7C6)CC5)CC4)CC3)no2)C(C)C)cc1 (stereo partly drawn) [I-291]
Dmax (SMARCA2 [1]): > 90%
DC50 (SMARCA2 [1]): 1 to 10 nM
Selectivity in MV411 (SMARCA2 [1]): C (C (10-100 fold))
Dmax (SMARCA2 [2]): > 90%
DC50 (SMARCA2 [2]): 10 to 50 nM
Dmax (SMARCA4): > 90%
DC50 (SMARCA4): 10 to 100 nM

Cc1ncsc1-c1ccc(CNC(=O)[C@@H]2C[C@@H](O)CN2C(=O)[C@@H](NC(=O)C2(F)CC2)C(C)(C)C)c(O[C@H]2CC[C@H](N3CCC(c4cnc(N5CCc6[nH]c7nnc(-c8ccccc8O)cc7c6[C@H]5C)nc4)CC3)CC2)c1 (single isomer, unassigned) [I-30]
Dmax (SMARCA2 [1]): > 90%
DC50 (SMARCA2 [1]): < 1 nM
Selectivity in MV411 (SMARCA2 [1]): D (D (<10 fold))
Dmax (SMARCA2 [2]): > 90%
DC50 (SMARCA2 [2]): < 10 nM
Dmax (SMARCA4): > 90%
DC50 (SMARCA4): < 1 nM

C#Cc1ccc(CNC(=O)[C@@H]2C[C@@H](O)CN2C(=O)[C@@H](NC(=O)[C@H]2CCC3(CC2)C[C@H](N2CCN(c4cnc(N5CCN6c7cc(-c8ccccc8O)nnc7NC[C@H]6C5)nc4)CC2)C3)C(C)(C)C)c(OC)c1 (single isomer, unassigned) [I-195]
Dmax (SMARCA2 [1]): > 90%
DC50 (SMARCA2 [1]): 1 to 10 nM
Selectivity in MV411 (SMARCA2 [1]): C (C (10-100 fold))
Dmax (SMARCA2 [2]): > 90%
DC50 (SMARCA2 [2]): 10 to 50 nM
Dmax (SMARCA4): 70 to 90%
DC50 (SMARCA4): 10 to 100 nM

C#Cc1ccc(CNC(=O)[C@@H]2C[C@@H](O)CN2C(=O)[C@@H](NC(=O)N2CC3(CC(N4CCC(c5cnc(N6CCc7[nH]c8nnc(-c9ccccc9O)cc8c7[C@@H]6C)s5)CC4)C3)C2)C(C)(C)C)cc1 [I-335]
Dmax (SMARCA2 [1]): 50 to 70%
DC50 (SMARCA2 [1]): 10 to 100 nM
Selectivity in MV411 (SMARCA2 [1]): D (D (<10 fold))
Dmax (SMARCA2 [2]): 70 to 90%
DC50 (SMARCA2 [2]): > 100 nM
Dmax (SMARCA4): 70 to 90%
DC50 (SMARCA4): > 100 nM

C#Cc1ccc(CNC(=O)[C@@H]2C[C@@H](O)CN2C(=O)[C@@H](NC(=O)[C@H]2CCC3(CC2)C[C@H](N2CCC(N4CC5(CC(N6CCN7c8cc(-c9ccccc9O)nnc8NC[C@H]7C6)C5)C4)CC2)C3)C(C)(C)C)c(Cl)c1 (single isomer, unassigned) [I-238]
SMARCA2 MSD MV411 degradation 24 h: average Dmax % (SMARCA2 [1]): B (B (>70-90% degradation))
DC50 (SMARCA2 [1]): 10 to 100 nM
Selectivity in MV411 (SMARCA2 [1]): C (C (10-100 fold))
SMARCA2 MSD A549 degradation 24 h: Average Dmax % (SMARCA2 [2]): A (A (>90% degradation))
DC50 (SMARCA2 [2]): > 100 nM
SMARCA4 MSD MV411 degradation 24 h: average Dmax % (SMARCA4): D (D (<50% degradation))
DC50 (SMARCA4): > 100 nM
